# Residues, ends and D or L forms follow the SMILES beside them. *: point of attachment. Biotin = O=C1N[C@H]2[C@H](CS[C@H]2CCCCC(=O)*)N1
# What was measured:
# SITAC-18 d1 = biological target: T1, SITAC-18 d1 (Homo sapiens, UniProt Q9H190); test: G3 assay titration, GST-PDZ fusion / biotinylated peptide; format: binding
# T1 construct: made in house; host or cells: E. coli (DH5alpha, BL21 or JM109)
# T1 sequence (Q9H190 104-195): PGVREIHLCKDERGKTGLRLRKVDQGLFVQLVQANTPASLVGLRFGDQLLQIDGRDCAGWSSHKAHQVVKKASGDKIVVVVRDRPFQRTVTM
# Method: (§1) The G3 assay is identical to the G0 assay with the following exceptions. The peptides are typically present at 0.1 μM rather than 20 μM. The peptides are also pre-incubated with the HRP-streptavidin prior to adding to the assay plate. In the G0 assay, free peptide is incubated with the PDZ proteins prior to the addition of the HRP-streptavidin. Thus, for the G0 assay one can lose signal if the bound peptide dissociates from the PDZ protein prior to the addition of the HRP-streptavidin. In the G3 modified assay the HRP-streptavidin/peptide complex is added to the plate in one step, thus increasing the likelihood that all the bound peptide will be bound to HRP-streptavidin. The G3 modified assay increases the chance of observing weak interactions.
# (§2) This example describes assays to identify binding between TRPM7 and PDZ domains. GST-PDZ fusions are produced that each contain an entire PDZ domain (or multiple PDZ domains), the collection encompassing approximately 90% of all PDZ domains identified in the human genome. (See Table 5 and Section V (PDZ Proteins and PL Protein Interactions Disclosure). Biotinylated peptide corresponding to 11 residues of Tat coupled to the C-terminal 9 amino acids of TRPM7 ([…]; SEQ ID NO:258) is synthesized and purified by HPLC.
# (§3) • Nunc MaxiSorp 96 well Immuno-plate, Nunc • PBS pH 7.4 (phosphate buffered saline, 8 g NaCl, 0.29 g KCl, 1.44 g Na2HPO4, 0.24 g KH2PO4, add H2O to 1 liter and pH 7.4; 0.2 μm filter) • Assay Buffer: 2% BSA in PBS (20 g of bovine serum albumin per liter PBS, fraction V, ICN Biomedicals, cat#IC15142983 • Goat anti-GST polyclonal Ab, stock 5 mg/ml, stored at 4° C., Amersham Pharmacia cat#27-4577-01 • Dilute 1:1000 in PBS, final concentration 5 μg/ml. • HRP-Streptavidin, 2.5 mg/2 ml stock stored at 4° C., Zymed cat#43-4323, dilute 1:2000 into Assay buffer, final concentration of […] • Wash Buffer, PBS • Biotinylated peptides (HPLC purified, stock solution stored in −20° C. freezer) • GST-PRISM proteins (stock stored at −80° C., after 1st thaw store in −10° C. freezer) • TMB (3,3′,5,5′, teramethylbensidine), tablets, Sigma cat.#T5525 • Per plate, dissolve 1 tablet in 1 ml DMSO, add 9 ml Citrate/Phosphate buffer pH 5.4 and 2 μL H2O2 • 0.1 M H2SO4, Sigma cat.#S1526 • 12-w multichannel pipettor & tips • 50 ml reagent reservoirs, Costar#4870 • 50, 15 ml polypropylene conical tubes • Costar Transtar 96 Costar #7605 • Transtar 96 Cartridge Costar #7610 • Molecular Devices microplate reader (450 & 650 nm filters) with SoftMax Pro software *When using reagents stored at or 4° C. or −20° C., remove & keep on ice
# (§4) • 1. Coat plate with 100 μl of 5 μg/ml anti-GST, overnight at 4° C. • 2. Dump contents of plate & out tap dry on paper towels • 3. Block with 200 μl Assay Buffer for 2 hrs at room temperature • 4. Prepare proteins at 5 μg/ml in Assay Buffer • 5. Wash 3× with cold PBS (4° C.), avoiding letting the plates dry out • 6. Add proteins at 50 μl per well, incubate 1 to 2 hrs at 4° C. • 7. Prepare peptides to desired concentration in Assay Buffer • 8. Wash 3× with cold PBS (4° C.), avoiding letting the plates dry out • 9. Add HRP-Streptavidin/peptide complex [prepared by incubating for 20 minutes at room temperature HRP-Streptavidin (1:2000) with the desired biotin-peptide concentration for 20 minutes at room temperature] at 50 μl per well on ice • 10. Place at room temperature for exactly 30 minutes • 11. Promptly wash 5× with PBS at room temperature • 12. Add 100 μl/well TMB substrate (write time on plate) • 13. Incubate in dark at room temperature for a maximum of 30 minutes • 14. Read plate at 25 minutes (650 nm), optional • 15. Stop reaction with 100 μl of 0.18 M H2SO4, 30 minutes after adding TMB • Take last reading at 450 nm soon after stopping reaction
# (§5) The G3 assay was performed on a subset of the PDZ domains as in Example II except that the concentration of peptide was 0.002 μM, […], 0.1 μM, 0.2 μM, 1 μM, and 2 μM. Data was fitted to the equation: […]
# MUPP1 d3 = biological target: T2, MUPP1 d3 (Homo sapiens, UniProt O75970); test: as above; format: binding
# T2 construct: made in house; host or cells: E. coli (DH5alpha, BL21 or JM109)
# T2 sequence (O75970 with tags, fused parts or gaps): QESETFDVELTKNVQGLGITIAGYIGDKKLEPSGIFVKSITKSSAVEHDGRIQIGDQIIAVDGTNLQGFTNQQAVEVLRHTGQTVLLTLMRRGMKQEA
# Method: as §1, §2, §3, §4, §5
compound,measurement,setting,value
CSCC[C@H](NC(=O)[C@H](CC(C)C)NC(=O)[C@H](CCCNC(=N)N)NC(=O)[C@@H](NC(=O)[C@H](CO)NC(=O)[C@H](CC(N)=O)NC(=O)[C@@H](NC(=O)[C@H](CO)NC(=O)[C@H](CCCNC(=N)N)NC(=O)[C@H](CCCNC(=N)N)NC(=O)[C@H](CCCNC(=N)N)NC(=O)[C@H](CCC(N)=O)NC(=O)[C@H](CCCNC(=N)N)NC(=O)[C@H](CCCNC(=N)N)NC(=O)[C@H](CCCCN)NC(=O)[C@H](CCCCN)NC(=O)[C@H](CCCNC(=N)N)NC(=O)CNC(=O)[C@H](Cc1ccc(O)cc1)NC(=O)CCCC[C@@H]1SC[C@@H]2NC(=O)N[C@@H]21)[C@@H](C)O)C(C)C)C(=O)N[C@@H](CC(C)C)C(=O)O [Tat-TRPM7 peptide] (Biotin-YGRKKRRQRRRSTNSVRLML-OH),EC50,SITAC-18 d1,< 1000 nM
same,EC50,MUPP1 d3,290 nM

# — patent publication US20080119412A1, “Polypeptides for Modulating Binding of Trp Channel Proteins and Trp- Associated Proteins” (NoNO Inc., priority 2003, published 2008)
